According to US11738021B2, “Composition and method for preventing, alleviating or treating cancer” (CKP Therapeutics, Inc., priority 2021, dated 2023):

Assays:
[1] = tested on: YUMC-P1 cell line xenograft; details: YUMC-P1 xenograft mice, oral, 13 times over 41 days, doses per Table 3
Method: (§1) 15 days after injection of each of the cell lines, when the tumor volume reached about 100 to 200 mm^3, mice having a tumor with the above volume were randomly grouped (n=10/group), and then each drug was administered to the mice 13 times for a total of 41 days under the conditions shown in Table 3 below. […] Here, nothing was administered to the control group.

[2] = tested on: YUMC-H2 cell line xenograft; details: YUMC-H2 xenograft mice, oral, 13 times over 41 days, doses per Table 3
Method: as §1

[3] = tested on: YUMC-C1 cell line xenograft; type: in vivo; details: YUMC-C1 xenograft mice, oral, 13 times over 41 days, doses per Table 3
Method: as §1

[4] = tested on: YUMC-C1 cell line; details: drug alone at 200 μM, FIG. 2
Method: Each of the YUMC-C1, YUMC-H2 and YUMC-P1 cell lines of Example 1 was inoculated into 96-well plates at a density of 6×10^3 cells/well and then cultured overnight to a confluence of 90%. […] However, when 1-(2-fluorophenyl)-4,6-dimethyl-1H,2H,3H-pyrrolo[3,2-c]quinoline was used in combination with oxaliplatin or sorafenib, the treatment concentration of each of oxaliplatin and sorafenib was 30 μM. Thereafter, cell viability was measured using the MTT reagent. The absorbance was measured at 550 nm, and viable cells were counted using trypan blue staining.

[5] = tested on: YUMC-H2 cell line; assay: MTT cell viability, anticancer drug-resistant YUMC-H2 cell line; type: cell-based, human; details: drug alone at 200 μM, FIG. 2
[6] = tested on: YUMC-P1 cell line; assay: MTT cell viability, anticancer drug-resistant YUMC-P1 cell line; type: cell-based, human; details: drug alone at 200 μM, FIG. 2

For `Cc1nc2c(C)cccc2c2c1CCN2c1ccccc1F` [Candidate 19], which “changes in mouse body weight (toxicity)” value ([1]; FIG. 5) is on record?
The value was “no changes”.

What about the “changes in mouse body weight (toxicity)” value ([2]; FIG. 5) of the same molecule?
Its value is “no changes”.

And the “changes in mouse body weight (toxicity)” value ([3]; FIG. 5)?
Its value is “no changes”.

Which cells survived [4] does the source give for `O=C1[O][Pt]2([NH][C@@H]3CCCC[C@H]3[NH]2)[O]C1=O` [oxaliplatin] here?
Its cells survived is “more than 80%”.

And the tumor volume ([3]; vs control, FIG. 3)?
Its tumor volume is “did not significantly decrease”.

What about the tumor weight ([3]; vs control, FIG. 4) of the same molecule?
Its tumor weight is “did not significantly decrease”.

`CNC(=O)c1cc(Oc2ccc(NC(=O)Nc3ccc(Cl)c(C(F)(F)F)c3)cc2)ccn1` [sorafenib] was tested. Which tumor volume ([1]; FIG. 3) did it give?
Its tumor volume is “no significant changes”.

What about the tumor weight ([1]; FIG. 4) of the same molecule?
Its tumor weight is “no significant changes”.

And the cells survived [5]?
The cells survived was “more than 80%”.

What about the tumor volume ([2]; FIG. 3) of the same molecule?
Its tumor volume is “no significant changes”.

And the tumor weight ([2]; FIG. 4)?
The tumor weight was “no significant changes”.

And the cells survived [6]?
Its cells survived is “more than 80%”.
